Reference: ChEMBL document CHEMBL1129930, “Analogues of methotrexate in rheumatoid arthritis. 2. Effects of 5-deazaaminopterin, 5,10-dideazaaminopterin, and analogues on type II collagen-induced arthritis in mice” (J Med Chem, 1997)

Key:
Mus musculus [1] = assay: Tested for antiinflammatory activity on mouse type II collagen arthritis as Paw swelling of all animals in each group on day 30 at intraperitoneal dose of 10 mg/kg; assay type: functional
Mus musculus [2] = assay: Tested for antiinflammatory activity on mouse type II collagen arthritis as Paw swelling of all animals in each group on day 23 at intraperitoneal dose of 10 mg/kg; assay type: functional
Mus musculus [3] = assay: Tested for antiinflammatory activity on mouse type II collagen arthritis as Paw swelling of all animals in each group on day 23 at intraperitoneal dose of 5 mg/kg; assay type: functional
Mus musculus [4] = assay: Incidence of disease (mouse type II collagen) was scored as the percentage of animals within each experimental group that exhibited joint or limb inflammation on day 37 at intraperitoneal dose of 5 mg/kg; assay type: functional
Mus musculus [5] = assay: Incidence of disease (mouse type II collagen) was scored as the percentage of animals within each experimental group that exhibited joint or limb inflammation on day 37 at intraperitoneal dose of 10 mg/kg; assay type: functional
Mus musculus [6] = assay: Tested for antiinflammatory activity on mouse type II collagen arthritis as Paw swelling of all animals in each group on day 37 at intraperitoneal dose of 10 mg/kg; assay type: functional
Mus musculus [7] = assay: Tested for antiinflammatory activity on mouse type II collagen arthritis as Paw swelling of all animals in each group on day 44 at intraperitoneal dose of 5 mg/kg; assay type: functional
Mus musculus [8] = assay: Tested for antiinflammatory activity on mouse type II collagen arthritis as Paw swelling of all animals in each group on day 44 at intraperitoneal dose of 10 mg/kg; assay type: functional
Mus musculus [9] = assay: Incidence of disease (mouse type II collagen) was scored as the percentage of animals within each experimental group that exhibited joint or limb inflammation on day 30 at intraperitoneal dose of 5 mg/kg; assay type: functional
Mus musculus [10] = assay: Tested for antiinflammatory activity on mouse type II collagen arthritis as Paw swelling of all animals in each group on day 30 at intraperitoneal dose of 5 mg/kg; assay type: functional
Mus musculus [11] = assay: Incidence of disease (mouse type II collagen) was scored as the percentage of animals within each experimental group that exhibited joint or limb inflammation on day 23 at intraperitoneal dose of 10 mg/kg; assay type: functional
Mus musculus [12] = assay: Incidence of disease (mouse type II collagen) was scored as the percentage of animals within each experimental group that exhibited joint or limb inflammation on day 44 at intraperitoneal dose of 5 mg/kg; assay type: functional
Mus musculus [13] = assay: Incidence of disease (mouse type II collagen) was scored as the percentage of animals within each experimental group that exhibited joint or limb inflammation on day 44 at intraperitoneal dose of 10 mg/kg; assay type: functional
Mus musculus [14] = assay: Tested for antiinflammatory activity on mouse type II collagen arthritis as Paw swelling of all animals in each group on day 37 at intraperitoneal dose of 5 mg/kg; assay type: functional
Mus musculus [15] = assay: Incidence of disease (mouse type II collagen) was scored as the percentage of animals within each experimental group that exhibited joint or limb inflammation on day 30 at intraperitoneal dose of 10 mg/kg; assay type: functional
Mus musculus [16] = assay: Incidence of disease (mouse type II collagen) was scored as the percentage of animals within each experimental group that exhibited joint or limb inflammation on day 23 at intraperitoneal dose of 5 mg/kg; assay type: functional
Mus musculus [17] = assay: Tested for antiinflammatory activity on mouse type II collagen arthritis as Paw swelling of all animals in each group on day 30 at intraperitoneal dose of 3 mg/kg; assay type: functional
Mus musculus [18] = assay: Incidence of disease (mouse type II collagen) was scored as the percentage of animals within each experimental group that exhibited joint or limb inflammation on day 23 at intraperitoneal dose of 0.75 mg/kg; assay type: functional
Mus musculus [19] = assay: Tested for antiinflammatory activity on mouse type II collagen arthritis as Paw swelling of all animals in each group on day 44 at intraperitoneal dose of 1.5 mg/kg; assay type: functional
Mus musculus [20] = assay: Tested for antiinflammatory activity on mouse type II collagen arthritis as Paw swelling of all animals in each group on day 37 at intraperitoneal dose of 3 mg/kg; assay type: functional
Mus musculus [21] = assay: Tested for antiinflammatory activity on mouse type II collagen arthritis as Paw swelling of all animals in each group on day 23 at intraperitoneal dose of 6 mg/kg; assay type: functional
Mus musculus [22] = assay: Incidence of disease (mouse type II collagen) was scored as the percentage of animals within each experimental group that exhibited joint or limb inflammation on day 44 at intraperitoneal dose of 3 mg/kg; assay type: functional
Mus musculus [23] = assay: Incidence of disease (mouse type II collagen) was scored as the percentage of animals within each experimental group that exhibited joint or limb inflammation on day 44 at intraperitoneal dose of 6 mg/kg (1 animal died); assay type: functional
Mus musculus [24] = assay: Incidence of disease (mouse type II collagen) was scored as the percentage of animals within each experimental group that exhibited joint or limb inflammation on day 23 at intraperitoneal dose of 0.38 mg/kg; assay type: functional
Mus musculus [25] = assay: Tested for antiinflammatory activity on mouse type II collagen arthritis as Paw swelling of all animals in each group on day 37 at intraperitoneal dose of 6 mg/kg; assay type: functional
Mus musculus [26] = assay: Incidence of disease (mouse type II collagen) was scored as the percentage of animals within each experimental group that exhibited joint or limb inflammation on day 23 at intraperitoneal dose of 1.5 mg/kg; assay type: functional
Mus musculus [27] = assay: Incidence of disease (mouse type II collagen) was scored as the percentage of animals within each experimental group that exhibited joint or limb inflammation on day 30 at intraperitoneal dose of 6 mg/kg (1 animal died); assay type: functional
L1210 = assay: Concentration required to inhibit the growth of L1210 cells.; assay type: functional, cell-based; settings: Mus musculus
Mus musculus [28] = assay: Incidence of disease (mouse type II collagen) was scored as the percentage of animals within each experimental group that exhibited joint or limb inflammation on day 23 at intraperitoneal dose of 6 mg/kg (1 animal died); assay type: functional
Mus musculus [29] = assay: Tested for antiinflammatory activity on mouse type II collagen arthritis as Paw swelling of all animals in each group on day 44 at intraperitoneal dose of 6 mg/kg; assay type: functional
Mus musculus [30] = assay: Incidence of disease (mouse type II collagen) was scored as the percentage of animals within each experimental group that exhibited joint or limb inflammation on day 37 at intraperitoneal dose of 0.75 mg/kg; assay type: functional
Mus musculus [31] = assay: Incidence of disease (mouse type II collagen) was scored as the percentage of animals within each experimental group that exhibited joint or limb inflammation on day 37 at intraperitoneal dose of 3 mg/kg; assay type: functional
Mus musculus [32] = assay: Tested for antiinflammatory activity on mouse type II collagen arthritis as Paw swelling of all animals in each group on day 23 at intraperitoneal dose of 0.75 mg/kg; assay type: functional
Mus musculus [33] = assay: Incidence of disease (mouse type II collagen) was scored as the percentage of animals within each experimental group that exhibited joint or limb inflammation on day 30 at intraperitoneal dose of 0.75 mg/kg; assay type: functional
Mus musculus [34] = assay: Tested for antiinflammatory activity on mouse type II collagen arthritis as Paw swelling of all animals in each group on day 37 at intraperitoneal dose of 0.38 mg/kg; assay type: functional
Mus musculus [35] = assay: Tested for antiinflammatory activity on mouse type II collagen arthritis as Paw swelling of all animals in each group on day 30 at intraperitoneal dose of 1.5 mg/kg; assay type: functional
Mus musculus [36] = assay: Incidence of disease (mouse type II collagen) was scored as the percentage of animals within each experimental group that exhibited joint or limb inflammation on day 37 at intraperitoneal dose of 1.5 mg/kg; assay type: functional
Mus musculus [37] = assay: Incidence of disease (mouse type II collagen) was scored as the percentage of animals within each experimental group that exhibited joint or limb inflammation on day 44 at intraperitoneal dose of 0.38 mg/kg; assay type: functional
Mus musculus [38] = assay: Tested for antiinflammatory activity on mouse type II collagen arthritis as Paw swelling of all animals in each group on day 37 at intraperitoneal dose of 0.75 mg/kg; assay type: functional
Mus musculus [39] = assay: Tested for antiinflammatory activity on mouse type II collagen arthritis as Paw swelling of all animals in each group on day 44 at intraperitoneal dose of 0.38 mg/kg; assay type: functional
Mus musculus [40] = assay: Incidence of disease (mouse type II collagen) was scored as the percentage of animals within each experimental group that exhibited joint or limb inflammation on day 30 at intraperitoneal dose of 0.38 mg/kg; assay type: functional
Mus musculus [41] = assay: Tested for antiinflammatory activity on mouse type II collagen arthritis as Paw swelling of all animals in each group on day 30 at intraperitoneal dose of 0.75 mg/kg; assay type: functional
Mus musculus [42] = assay: Incidence of disease (mouse type II collagen) was scored as the percentage of animals within each experimental group that exhibited joint or limb inflammation on day 44 at intraperitoneal dose of 1.5 mg/kg; assay type: functional
Mus musculus [43] = assay: Tested for antiinflammatory activity on mouse type II collagen arthritis as Paw swelling of all animals in each group on day 37 at intraperitoneal dose of 1.5 mg/kg; assay type: functional
Mus musculus [44] = assay: Tested for antiinflammatory activity on mouse type II collagen arthritis as Paw swelling of all animals in each group on day 23 at intraperitoneal dose of 0.38 mg/kg; assay type: functional
Mus musculus [45] = assay: Incidence of disease (mouse type II collagen) was scored as the percentage of animals within each experimental group that exhibited joint or limb inflammation on day 23 at intraperitoneal dose of 3 mg/kg; assay type: functional
Mus musculus [46] = assay: Incidence of disease (mouse type II collagen) was scored as the percentage of animals within each experimental group that exhibited joint or limb inflammation on day 30 at intraperitoneal dose of 1.5 mg/kg; assay type: functional
[47] = Concentration required to inhibit the growth of chang liver cells.; assay type: functional; settings: Homo sapiens
Mus musculus [48] = assay: Tested for antiinflammatory activity on mouse type II collagen arthritis as Paw swelling of all animals in each group on day 30 at intraperitoneal dose of 0.38 mg/kg; assay type: functional
Mus musculus [49] = assay: Incidence of disease (mouse type II collagen) was scored as the percentage of animals within each experimental group that exhibited joint or limb inflammation on day 37 at intraperitoneal dose of 0.38 mg/kg; assay type: functional
Mus musculus [50] = assay: Incidence of disease (mouse type II collagen) was scored as the percentage of animals within each experimental group that exhibited joint or limb inflammation on day 30 at intraperitoneal dose of 3 mg/kg; assay type: functional
Mus musculus [51] = assay: Incidence of disease (mouse type II collagen) was scored as the percentage of animals within each experimental group that exhibited joint or limb inflammation on day 37 at intraperitoneal dose of 6 mg/kg (1 animal died); assay type: functional
Mus musculus [52] = assay: Incidence of disease (mouse type II collagen) was scored as the percentage of animals within each experimental group that exhibited joint or limb inflammation on day 44 at intraperitoneal dose of 0.75 mg/kg; assay type: functional
Mus musculus [53] = assay: Tested for antiinflammatory activity on mouse type II collagen arthritis as Paw swelling of all animals in each group on day 44 at intraperitoneal dose of 3 mg/kg; assay type: functional
Mus musculus [54] = assay: Tested for antiinflammatory activity on mouse type II collagen arthritis as Paw swelling of all animals in each group on day 44 at intraperitoneal dose of 0.75 mg/kg; assay type: functional
Mus musculus [55] = assay: Tested for antiinflammatory activity on mouse type II collagen arthritis as Paw swelling of all animals in each group on day 30 at intraperitoneal dose of 6 mg/kg; assay type: functional

C#CCC(Cc1cnc2nc(N)nc(N)c2c1C)c1ccc(C(=O)NC(CCC(=O)O)C(=O)O)cc1 (stereo unspecified)
Paw swelling (Mus musculus [1]): 2.37 mm | Paw swelling (Mus musculus [2]): 2.19 mm | Paw swelling (Mus musculus [3]): 2.18 mm | Animals (Mus musculus [4]): 62% | Animals (Mus musculus [5]): 71% | Paw swelling (Mus musculus [6]): 2.65 mm | Paw swelling (Mus musculus [7]): 2.64 mm | Paw swelling (Mus musculus [8]): 2.7 mm | Animals (Mus musculus [9]): 12% | Paw swelling (Mus musculus [10]): 2.17 mm | Animals (Mus musculus [11]): 14% | Animals (Mus musculus [12]): 88% | Animals (Mus musculus [13]): 71% | Paw swelling (Mus musculus [14]): 2.45 mm | Animals (Mus musculus [15]): 57% | Animals (Mus musculus [16]): 12%

C=CCN(Cc1cnc2nc(N)nc(N)c2c1C)c1ccc(C(=O)NC(CCC(=O)O)C(=O)O)cc1 (stereo unspecified)
Paw swelling (Mus musculus [17]): 2.12 mm | Animals (Mus musculus [18]): 0% | Paw swelling (Mus musculus [19]): 2.32 mm | Paw swelling (Mus musculus [20]): 2.14 mm | Paw swelling (Mus musculus [21]): 2.09 mm | Animals (Mus musculus [22]): 0% | Animals (Mus musculus [23]): 0% | Animals (Mus musculus [24]): 0% | Paw swelling (Mus musculus [25]): 2.15 mm | Animals (Mus musculus [26]): 0% | Animals (Mus musculus [27]): 0% | IC50 (L1210): 3.4 nM | Animals (Mus musculus [28]): 0% | Paw swelling (Mus musculus [29]): 2.13 mm | Animals (Mus musculus [30]): 38% | Animals (Mus musculus [31]): 0% | Paw swelling (Mus musculus [32]): 2.17 mm | Animals (Mus musculus [33]): 25% | Paw swelling (Mus musculus [34]): 2.3 mm | Paw swelling (Mus musculus [35]): 2.24 mm | Animals (Mus musculus [36]): 25% | Animals (Mus musculus [37]): 62% | Paw swelling (Mus musculus [38]): 2.33 mm | Paw swelling (Mus musculus [39]): 2.39 mm | Animals (Mus musculus [40]): 0% | Paw swelling (Mus musculus [41]): 2.22 mm | Animals (Mus musculus [42]): 50% | Paw swelling (Mus musculus [43]): 2.26 mm | Paw swelling (Mus musculus [44]): 2.17 mm | Animals (Mus musculus [45]): 0% | Animals (Mus musculus [46]): 12% | IC50 [47]: 30 nM | Paw swelling (Mus musculus [48]): 2.17 mm | Animals (Mus musculus [49]): 38% | Animals (Mus musculus [50]): 0% | Animals (Mus musculus [51]): 0% | Animals (Mus musculus [52]): 50% | Paw swelling (Mus musculus [53]): 2.16 mm | Paw swelling (Mus musculus [54]): 2.36 mm | Paw swelling (Mus musculus [55]): 2.1 mm
